Test system: PBMCs infected with VSV-G pseudotyped HIV virus (VSV-G/pNLG1-P2A-ΔEnv)
Experiment: cells
Assay type: cell-based, human
Settings: Homo sapiens, PBMC, read-out: TACK EC50

`COCc1cc(Cl)n(Cc2cc3c(cc2F)[C@@](C#CC2CC2)(C(C)(F)F)NC(=O)N3)n1` [Example 18, (S)-7-((5-chloro-3-(methoxymethyl)-1H-pyrazol-1-yl)methyl)-4-(cyclopropylethynyl)-4-(1,1-difluoroethyl)-6-fluoro-3,4-dihydroquinazolin-2(1H)-one] was tested, and the EC50 was 46.6 nM.

In the case of `CC(F)(F)[C@@]1(C#CC2CC2)NC(=O)Nc2cc(Cn3ccc(Br)n3)c(F)cc21` [Example 19, (S)-7-((3-bromo-1H-pyrazol-1-yl)methyl)-4-(cyclopropylethynyl)-4-(1,1-difluoroethyl)-6-fluoro-3,4-dihydroquinazolin-2(1H)-one], the EC50 is reported as 26.2 nM.

`CC(F)(F)[C@@]1(C#CC2CC2)NC(=O)Nc2cc(Cn3cncn3)c(F)cc21` [Example 20, (S)-7-((1H-1,2,4-triazol-1-yl)methyl)-4-(cyclopropylethynyl)-4-(1,1-difluoroethyl)-6-fluoro-3,4-dihydroquinazolin-2(1H)-one] gave an EC50 of 43.7 nM.

In the case of `O=C1Nc2cc(Cn3cc4cnccc4n3)c(F)cc2[C@@](C#CC2CC2)(C(F)(F)F)N1` [Example 21, (S)-7-((2H-pyrazolo[4,3-c]pyridin-2-yl)methyl)-4-(cyclopropylethynyl)-6-fluoro-4-(trifluoromethyl)-3,4-dihydroquinazolin-2(1H)-one], the EC50 is reported as 13.4 nM.

`O=C1Nc2cc(Cn3c(=O)[nH]c4ccccc43)c(F)cc2[C@@](C#CC2CC2)(C(F)(F)F)N1` [Example 24, (S)-4-(cyclopropylethynyl)-6-fluoro-7-((2-oxo-2,3-dihydro-1H-benzo[d]imidazol-1-yl)methyl)-4-(trifluoromethyl)-3,4-dihydroquinazolin-2(1H)-one] gave an EC50 of 32.5 nM.

For `O=C1Nc2cc(Cn3cc4cncnc4n3)c(F)cc2[C@@](C#CC2CC2)(C(F)(F)F)N1` [Example 27, (S)-7-((2H-pyrazolo[3,4-d]pyrimidin-2-yl)methyl)-4-(cyclopropylethynyl)-6-fluoro-4-(trifluoromethyl)-3,4-dihydroquinazolin-2(1H)-one], the EC50 was 82.6 nM.

For `O=C1Nc2cc(Cn3cc4cccnc4n3)c(F)cc2[C@@](C#CC2CC2)(C(F)(F)F)N1` [Example 28, (S)-7-((2H-pyrazolo[3,4-b]pyridin-2-yl)methyl)-4-(cyclopropylethynyl)-6-fluoro-4-(trifluoromethyl)-3,4-dihydroquinazolin-2(1H)-one], the EC50 was 104 nM.

For `O=C1Nc2cc(CN3C(=O)CNC3=O)c(F)cc2[C@@](C#CC2CC2)(C(F)(F)F)N1` [Example 29, (S)-3-((4-(cyclopropylethynyl)-6-fluoro-2-oxo-4-(trifluoromethyl)-1,2,3,4-tetrahydroquinazolin-7-yl)methyl)imidazolidine-2,4-dione], the EC50 was 27.4 nM.

`COCc1ccn(Cc2cc3c(cc2F)[C@@](C#CC2CC2)(C(F)(F)F)NC(=O)N3)n1` [Example 30, (S)-4-(cyclopropylethynyl)-6-fluoro-7-((3-(methoxymethyl)-1H-pyrazol-1-yl)methyl)-4-(trifluoromethyl)-3,4-dihydroquinazolin-2(1H)-one] gave an EC50 of 36.5 nM.

Work on `O=C1Nc2cc(Cn3cnc(CO)n3)c(F)cc2[C@@](C#CC2CC2)(C(F)(F)F)N1` [Example 31, (S)-4-(cyclopropylethynyl)-6-fluoro-7-((3-(hydroxymethyl)-1H-1,2,4-triazol-1-yl)methyl)-4-(trifluoromethyl)-3,4-dihydroquinazolin-2(1H)-one] yielded an EC50 of 52.8 nM.

Molecule `Cc1nn(C)c(=O)n1Cc1cc2c(cc1F)[C@@](C#CC1CC1)(C(F)(F)F)NC(=O)N2` [Example 32, (S)-4-(cyclopropylethynyl)-7-((1,3-dimethyl-5-oxo-1,5-dihydro-4H-1,2,4-triazol-4-yl)methyl)-6-fluoro-4-(trifluoromethyl)-3,4-dihydroquinazolin-2(1H)-one] has an EC50 of 14.4 nM.

`Cc1n[nH]c(=O)n1Cc1cc2c(cc1F)[C@@](C#CC1CC1)(C(F)(F)F)NC(=O)N2` [Example 33, (S)-4-(cyclopropylethynyl)-6-fluoro-7-((3-methyl-5-oxo-1,5-dihydro-4H-1,2,4-triazol-4-yl)methyl)-4-(trifluoromethyl)-3,4-dihydroquinazolin-2(1H)-one] showed an EC50 of 23.6 nM.

In the case of `O=C1Nc2cc(Cn3cn[nH]c3=O)c(F)cc2[C@@](C#CC2CC2)(C(F)(F)F)N1` [Example 34, (S)-4-(cyclopropylethynyl)-6-fluoro-7-((5-oxo-1,5-dihydro-4H-1,2,4-triazol-4-yl)methyl)-4-(trifluoromethyl)-3,4-dihydroquinazolin-2(1H)-one], the EC50 is reported as 44.6 nM.

Work on `CC(F)(F)[C@@]1(C#CC2CC2)NC(=O)Nc2cc(Cn3c(Cl)n[nH]c3=O)c(F)cc21` [Example 35, (S)-7-((3-chloro-5-oxo-1,5-dihydro-4H-1,2,4-triazol-4-yl)methyl)-4-(cyclopropylethynyl)-4-(1,1-difluoroethyl)-6-fluoro-3,4-dihydroquinazolin-2(1H)-one] yielded an EC50 of 10.9 nM.

With `O=C1Nc2cc(Cn3c(Cl)n[nH]c3=O)c(F)cc2[C@@](C#CC2CC2)(C(F)(F)F)N1` [Example 36, (S)-7-((3-chloro-5-oxo-1,5-dihydro-4H-1,2,4-triazol-4-yl)methyl)-4-(cyclopropylethynyl)-6-fluoro-4-(trifluoromethyl)-3,4-dihydroquinazolin-2(1H)-one] the EC50 was 13.3 nM.

Molecule `O=C1Nc2cc(Cn3c(C4CC4)n[nH]c3=O)c(F)cc2[C@@](C#CC2CC2)(C(F)(F)F)N1` [Example 37, (S)-7-((3-cyclopropyl-5-oxo-1,5-dihydro-4H-1,2,4-triazol-4-yl)methyl)-4-(cyclopropylethynyl)-6-fluoro-4-(trifluoromethyl)-3,4-dihydroquinazolin-2(1H)-one] has an EC50 of 42.9 nM.

Molecule `Cc1n[nH]c(=O)n1Cc1cc2c(cc1F)[C@@](C#CC1CC1)(C(C)(F)F)NC(=O)N2` [Example 38, (S)-4-(cyclopropylethynyl)-4-(1,1-difluoroethyl)-6-fluoro-7-((3-methyl-5-oxo-1,5-dihydro-4H-1,2,4-triazol-4-yl)methyl)-3,4-dihydroquinazolin-2(1H)-one] has an EC50 of 23 nM.

For `O=C1Nc2cc(Cn3c(=O)[nH]c4cnccc43)c(F)cc2[C@@](C#CC2CC2)(C(F)(F)F)N1` [Example 39, (S)-4-(cyclopropylethynyl)-6-fluoro-7-((2-oxo-2,3-dihydro-1H-imidazo[4,5-c]pyridin-1-yl)methyl)-4-(trifluoromethyl)-3,4-dihydroquinazolin-2(1H)-one], the EC50 was 13.7 nM.

For `CC(F)(F)[C@@]1(C#CC2CC2)NC(=O)Nc2cc(Cn3ccc4c3C(=O)NC4)c(F)cc21` [Example 40, (S)-4-(cyclopropylethynyl)-4-(1,1-difluoroethyl)-6-fluoro-7-((6-oxo-5,6-dihydropyrrolo[3,4-b]pyrrol-1(4H)-yl)methyl)-3,4-dihydroquinazolin-2(1H)-one], the EC50 was 5.9 nM.

`O=C1Nc2cc(Cn3c(=O)[nH]c4ccncc43)c(F)cc2[C@@](C#CC2CC2)(C(F)(F)F)N1` [Example 41, (S)-4-(cyclopropylethynyl)-6-fluoro-7-((2-oxo-1,2-dihydro-3H-imidazo[4,5-c]pyridin-3-yl)methyl)-4-(trifluoromethyl)-3,4-dihydroquinazolin-2(1H)-one] was tested, and the EC50 was 26.1 nM.

In the case of `CN1C(=O)Nc2cc(CN3C(=O)CNC3=O)c(F)cc2[C@@]1(C#CC1CC1)C(F)(F)F` [Example 42, (S)-3-((4-(cyclopropylethynyl)-6-fluoro-3-methyl-2-oxo-4-(trifluoromethyl)-1,2,3,4-tetrahydroquinazolin-7-yl)methyl)imidazolidine-2,4-dione], the EC50 is reported as 38.8 nM.

`CC(F)(F)[C@@]1(C#CC2CC2)NC(=O)Nc2cc(Cn3ccc(N)n3)c(F)cc21` [Example 43, (S)-7-((3-amino-1H-pyrazol-1-yl)methyl)-4-(cyclopropylethynyl)-4-(1,1-difluoroethyl)-6-fluoro-3,4-dihydroquinazolin-2(1H)-one] gave an EC50 of 8.5 nM.

`Cc1cc(N)nn1Cc1cc2c(cc1F)[C@@](C#CC1CC1)(C(C)(F)F)NC(=O)N2` [Example 44, (S)-7-((3-amino-5-methyl-1H-pyrazol-1-yl)methyl)-4-(cyclopropylethynyl)-4-(1,1-difluoroethyl)-6-fluoro-3,4-dihydroquinazolin-2(1H)-one] showed an EC50 of 19.5 nM.

Molecule `Cc1cn(Cc2cc3c(cc2F)[C@@](C#CC2CC2)(C(C)(F)F)NC(=O)N3)nc1N` [Example 45, (S)-7-((3-amino-4-methyl-1H-pyrazol-1-yl)methyl)-4-(cyclopropylethynyl)-4-(1,1-difluoroethyl)-6-fluoro-3,4-dihydroquinazolin-2(1H)-one] has an EC50 of 13.1 nM.

For `Nc1ccn(Cc2cc3c(cc2F)[C@@](C#CC2CC2)(C(F)(F)C2CC2)NC(=O)N3)n1` [Example 46, (S)-7-((3-amino-1H-pyrazol-1-yl)methyl)-4-(cyclopropyldifluoromethyl)-4-(cyclopropylethynyl)-6-fluoro-3,4-dihydroquinazolin-2(1H)-one], the EC50 was 26.7 nM.

For `CC(F)(F)[C@@]1(C#CC2CC2)NC(=O)Nc2cc(Cn3ccc(CCO)n3)c(F)cc21` [Example 47, (S)-4-(cyclopropylethynyl)-4-(1,1-difluoroethyl)-6-fluoro-7-((3-(2-hydroxyethyl)-1H-pyrazol-1-yl)methyl)-3,4-dihydroquinazolin-2(1H)-one], the EC50 was 37.7 nM.

In the case of `CC(F)(F)[C@@]1(C#CC2CC2)NC(=O)Nc2cc(Cn3ccc(CO)n3)c(Cl)cc21` [Example 48, (S)-6-chloro-4-(cyclopropylethynyl)-4-(1,1-difluoroethyl)-7-((3-(hydroxymethyl)-1H-pyrazol-1-yl)methyl)-3,4-dihydroquinazolin-2(1H)-one], the EC50 is reported as 29.6 nM.

Molecule `CC(F)(F)[C@@]1(C#CC2CC2)NC(=O)Nc2cc(Cn3ccnc3CO)c(F)cc21` [Example 49, (S)-4-(cyclopropylethynyl)-4-(1,1-difluoroethyl)-6-fluoro-7-((2-(hydroxymethyl)-1H-imidazol-1-yl)methyl)-3,4-dihydroquinazolin-2(1H)-one] has an EC50 of 41.8 nM.

`CC(F)(F)[C@@]1(C#CC2CC2)NC(=O)Nc2cc(Cn3ccc(-c4cc[nH]n4)n3)c(F)cc21` [Example 52, (S)-7-(1H,1′H-[3,3′-bipyrazol]-1-ylmethyl)-4-(cyclopropylethynyl)-4-(1,1-difluoroethyl)-6-fluoro-3,4-dihydroquinazolin-2(1H)-one] gave an EC50 of 28.3 nM.

Reference: patent publication US20250026759A1 (Merck Sharp & Dohme LLC, priority 2023, published 2025)
